{
  "source": "ChEMBL document CHEMBL1201862",
  "about": "“PubChem BioAssay data set” (2004)",
  "key": {"[1]": {"target": "T1, Mannose-6-phosphate isomerase (Homo sapiens, UniProt P34949)", "T1 sequence (P34949 whole entry)": "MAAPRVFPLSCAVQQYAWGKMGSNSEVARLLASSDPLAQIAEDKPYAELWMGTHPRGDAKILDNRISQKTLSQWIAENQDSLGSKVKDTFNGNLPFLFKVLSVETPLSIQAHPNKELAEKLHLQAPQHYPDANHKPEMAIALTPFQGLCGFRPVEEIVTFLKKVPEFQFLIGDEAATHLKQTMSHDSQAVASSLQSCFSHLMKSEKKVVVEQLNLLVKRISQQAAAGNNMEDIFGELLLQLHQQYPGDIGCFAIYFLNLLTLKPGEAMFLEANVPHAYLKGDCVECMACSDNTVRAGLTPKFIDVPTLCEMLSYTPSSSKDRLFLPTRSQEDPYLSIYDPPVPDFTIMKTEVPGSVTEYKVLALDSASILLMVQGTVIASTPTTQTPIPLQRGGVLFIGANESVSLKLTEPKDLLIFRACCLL", "assay": "human PMI inhibitors, high substrate, primary screen, biochemical, fluorescence intensity, high mannose 6-phosphate (AID 1220)"}, "[2]": {"target": "T2, Replicative DNA helicase DnaB (Mycobacterium tuberculosis, UniProt P9WMR3)", "T2 sequence (P9WMR3 whole entry)": "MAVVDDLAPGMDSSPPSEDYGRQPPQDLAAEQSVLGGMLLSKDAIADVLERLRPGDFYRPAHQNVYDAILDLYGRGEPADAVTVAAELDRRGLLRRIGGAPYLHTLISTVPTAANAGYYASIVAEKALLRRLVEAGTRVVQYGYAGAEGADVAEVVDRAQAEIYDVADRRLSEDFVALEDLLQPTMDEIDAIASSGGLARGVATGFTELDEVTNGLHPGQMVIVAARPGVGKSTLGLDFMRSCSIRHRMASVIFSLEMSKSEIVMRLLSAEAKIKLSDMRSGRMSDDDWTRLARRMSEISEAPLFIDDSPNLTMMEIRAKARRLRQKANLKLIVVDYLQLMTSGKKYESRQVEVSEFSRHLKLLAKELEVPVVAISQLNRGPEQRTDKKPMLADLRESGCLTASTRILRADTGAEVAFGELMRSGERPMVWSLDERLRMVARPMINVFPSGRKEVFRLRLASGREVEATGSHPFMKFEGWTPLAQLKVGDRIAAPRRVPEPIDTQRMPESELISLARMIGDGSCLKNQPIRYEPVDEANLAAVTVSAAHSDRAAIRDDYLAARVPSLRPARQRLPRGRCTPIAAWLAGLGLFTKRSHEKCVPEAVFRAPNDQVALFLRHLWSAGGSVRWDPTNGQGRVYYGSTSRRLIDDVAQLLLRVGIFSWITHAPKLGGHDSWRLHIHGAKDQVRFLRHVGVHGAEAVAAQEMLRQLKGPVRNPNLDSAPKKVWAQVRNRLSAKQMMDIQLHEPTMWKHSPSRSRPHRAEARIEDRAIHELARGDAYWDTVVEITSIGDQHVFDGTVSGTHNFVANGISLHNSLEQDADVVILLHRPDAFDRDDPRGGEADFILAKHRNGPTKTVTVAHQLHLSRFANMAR", "assay": "DnaB intein splicing inhibitors, dose response, biochemical, cell-free fluorescence (AID 449749)", "assay_type": "functional"}, "Vero": {"test_system": "Vero", "assay": "Vero cell cytotoxicity, cytotoxicity control for flavivirus capping enzyme inhibitors (AID 588742)", "assay_type": "functional", "conditions": "Chlorocebus sabaeus"}, "Protein RecA": {"target": "T3, Protein RecA (Mycobacterium tuberculosis, UniProt P9WHJ3)", "T3 sequence (P9WHJ3 whole entry)": "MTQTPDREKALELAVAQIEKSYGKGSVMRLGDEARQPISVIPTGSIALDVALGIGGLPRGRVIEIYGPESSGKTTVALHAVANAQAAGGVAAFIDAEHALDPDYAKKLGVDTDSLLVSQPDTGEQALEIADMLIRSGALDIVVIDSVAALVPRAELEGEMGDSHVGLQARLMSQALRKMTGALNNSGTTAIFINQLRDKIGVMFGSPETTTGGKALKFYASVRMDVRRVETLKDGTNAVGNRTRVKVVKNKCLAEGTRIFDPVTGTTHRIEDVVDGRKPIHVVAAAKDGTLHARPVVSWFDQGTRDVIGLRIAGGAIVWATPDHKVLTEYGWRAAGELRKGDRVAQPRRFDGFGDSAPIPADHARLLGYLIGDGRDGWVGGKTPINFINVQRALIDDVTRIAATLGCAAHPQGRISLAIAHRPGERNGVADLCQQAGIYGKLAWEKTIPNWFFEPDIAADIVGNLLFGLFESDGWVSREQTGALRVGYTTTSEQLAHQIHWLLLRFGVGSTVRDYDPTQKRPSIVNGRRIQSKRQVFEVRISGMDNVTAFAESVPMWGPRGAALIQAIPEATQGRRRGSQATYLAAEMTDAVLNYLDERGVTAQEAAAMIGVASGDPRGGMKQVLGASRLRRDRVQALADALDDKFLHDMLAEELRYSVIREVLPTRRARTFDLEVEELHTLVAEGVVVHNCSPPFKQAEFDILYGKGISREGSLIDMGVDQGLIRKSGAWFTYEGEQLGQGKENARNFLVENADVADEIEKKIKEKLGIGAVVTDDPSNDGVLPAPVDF", "assay": "Fluorescence Cell-Free Homogeneous Dose Retest to Identify Inhibitors of RecA-Intein Splicing Activity. [Related pubchem assays (depositor defined):AID2097, AID2223, AID489010, AID492950]", "assay_type": "functional"}, "[3]": {"target": "Fructose-bisphosphate aldolase (Mycobacterium tuberculosis, UniProt P9WQA3)", "sequence (P9WQA3 whole entry)": "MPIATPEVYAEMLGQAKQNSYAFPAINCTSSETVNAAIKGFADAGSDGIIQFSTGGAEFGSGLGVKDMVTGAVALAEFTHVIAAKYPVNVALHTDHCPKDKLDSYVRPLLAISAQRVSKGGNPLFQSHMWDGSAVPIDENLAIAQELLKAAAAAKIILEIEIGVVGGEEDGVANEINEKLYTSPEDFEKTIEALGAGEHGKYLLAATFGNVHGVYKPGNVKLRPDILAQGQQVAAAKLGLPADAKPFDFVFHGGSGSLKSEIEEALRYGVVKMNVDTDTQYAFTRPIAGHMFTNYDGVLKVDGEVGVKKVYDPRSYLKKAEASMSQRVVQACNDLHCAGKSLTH", "assay": "Fluorescence-based biochemical high throughput dose response assay for inhibitors of the fructose-bisphosphate aldolase (FBA) of M. tuberculosis.", "assay_type": "functional"}, "[4]": {"assay": "human group III sPLA2 inhibitors, dose response, biochemical, QFRET, IC50 (AID 743457);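 further: green fluorescence rise as the enzyme cleaves BODIPY PC-A2 in liposomes; potency for inhibition of the enzyme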"}, "Beta-galactosidase": {"target": "Beta-galactosidase (Escherichia coli, UniProt Q8VNN2)", "sequence (Q8VNN2 whole entry)": "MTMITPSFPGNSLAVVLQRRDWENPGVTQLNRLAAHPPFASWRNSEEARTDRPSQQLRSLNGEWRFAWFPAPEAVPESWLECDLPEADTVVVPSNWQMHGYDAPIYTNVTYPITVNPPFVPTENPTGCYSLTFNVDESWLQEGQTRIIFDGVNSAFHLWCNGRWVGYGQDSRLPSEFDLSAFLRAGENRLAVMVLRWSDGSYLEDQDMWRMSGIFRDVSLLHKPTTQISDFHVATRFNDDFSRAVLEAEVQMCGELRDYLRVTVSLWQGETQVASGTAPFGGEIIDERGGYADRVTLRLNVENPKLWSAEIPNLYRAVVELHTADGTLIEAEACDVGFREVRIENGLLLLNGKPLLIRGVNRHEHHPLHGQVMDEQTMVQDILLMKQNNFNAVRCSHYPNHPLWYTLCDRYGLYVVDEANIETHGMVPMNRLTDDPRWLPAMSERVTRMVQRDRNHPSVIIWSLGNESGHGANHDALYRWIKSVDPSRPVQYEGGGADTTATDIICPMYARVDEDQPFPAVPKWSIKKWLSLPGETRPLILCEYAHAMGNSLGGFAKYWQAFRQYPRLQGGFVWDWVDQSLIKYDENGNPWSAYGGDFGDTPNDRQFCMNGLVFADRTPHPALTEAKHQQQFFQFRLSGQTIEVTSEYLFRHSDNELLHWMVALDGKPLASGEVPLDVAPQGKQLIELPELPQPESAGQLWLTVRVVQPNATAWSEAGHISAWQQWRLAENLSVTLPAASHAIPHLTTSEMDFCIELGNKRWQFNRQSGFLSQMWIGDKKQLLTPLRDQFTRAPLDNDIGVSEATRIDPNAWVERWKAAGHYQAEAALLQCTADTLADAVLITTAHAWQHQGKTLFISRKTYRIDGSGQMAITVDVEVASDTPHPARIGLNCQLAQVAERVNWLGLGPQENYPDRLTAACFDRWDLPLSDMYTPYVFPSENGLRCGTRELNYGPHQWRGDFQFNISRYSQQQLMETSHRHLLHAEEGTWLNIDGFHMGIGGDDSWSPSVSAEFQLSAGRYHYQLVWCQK", "assay": "Dose response counterscreen for EBI2 assay utilizing the enzyme, b-galactosidase.", "assay_type": "functional"}, "[5]": {"target": "T4, Probable nicotinate-nucleotide adenylyltransferase (Staphylococcus aureus (strain N315), UniProt P65502)", "T4 sequence (P65502 whole entry)": "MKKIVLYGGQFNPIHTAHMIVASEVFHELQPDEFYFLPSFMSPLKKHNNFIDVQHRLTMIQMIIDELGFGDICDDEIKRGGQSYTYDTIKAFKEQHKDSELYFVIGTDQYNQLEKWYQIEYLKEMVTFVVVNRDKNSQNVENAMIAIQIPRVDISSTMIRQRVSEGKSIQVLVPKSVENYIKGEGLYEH", "assay_type": "functional, Staphylococcus aureus subsp. aureus N315"}, "[6]": {"target": "T4, Probable nicotinate-nucleotide adenylyltransferase", "assay_type": "functional, Staphylococcus aureus subsp. aureus N315", "conditions": "read-out: IC50_Mean"}, "[7]": {"assay": "Fluorescence-based cell-based high throughput dose response assay for inhibitors of the interaction of nucleotide-binding oligomerization domain containing 2 (NOD2) and the receptor-interacting serine-threonine kinase 2 (RIPK2).", "assay_type": "functional, Homo sapiens"}, "[8]": {"assay": "miR-122 activators in hepatoma reporter cells, dose response, cell-based, Huh7 psiCHECK-miR122, Renilla luciferase, cherry-picked (AID 651956);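 further: huh7 hepatoma cells stably carrying a psiCHECK-2 miR-122 sensor plasmid; renilla luciferase signal reporting endogenous miR-122 activity after 48 h compound exposure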", "assay_type": "functional"}, "[9]": {"assay": "inhibitors of TNFa-stimulated NF-kB luciferase reporter, dose response, selectivity assay for EBV LMP1 NF-kB inhibitor project, HEK293 LMP1 reporter cells, dry powder, set 2 (AID 624369)", "assay_type": "functional"}, "[10]": {"assay": "LMP1-driven NF-kB reporter inhibition, dose response, cell-based, luciferase reporter, luminescence, dry powder, set 2 (AID 624376)", "assay_type": "functional"}, "[11]": {"assay": "inhibitors of LMP1-driven NF-kB reporter, dose response, cell-based, EBV LMP1, luciferase, dry powder, set 2 (AID 624361)", "assay_type": "functional"}, "cells": {"assay": "cells", "assay_type": "functional, cell-based"}, "[12]": {"target": "T5, Nuclear receptor subfamily 0 group B member 1 (Homo sapiens, UniProt P51843)", "T5 sequence (P51843 whole entry)": "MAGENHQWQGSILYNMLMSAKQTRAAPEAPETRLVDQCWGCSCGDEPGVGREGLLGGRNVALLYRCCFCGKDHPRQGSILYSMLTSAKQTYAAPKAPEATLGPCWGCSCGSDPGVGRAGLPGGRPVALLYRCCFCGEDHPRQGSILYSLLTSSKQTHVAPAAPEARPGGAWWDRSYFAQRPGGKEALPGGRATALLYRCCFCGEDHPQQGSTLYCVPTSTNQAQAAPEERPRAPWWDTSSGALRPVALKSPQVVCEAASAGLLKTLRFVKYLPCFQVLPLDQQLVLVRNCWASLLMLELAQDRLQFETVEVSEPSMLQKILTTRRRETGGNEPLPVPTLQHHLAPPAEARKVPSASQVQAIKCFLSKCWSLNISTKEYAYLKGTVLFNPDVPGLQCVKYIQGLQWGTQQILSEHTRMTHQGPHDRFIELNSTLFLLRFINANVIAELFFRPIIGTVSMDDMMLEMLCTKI", "assay_type": "functional, cell-based"}, "[13]": {"assay": "HEK293 cell cytotoxicity, dose response, cytotoxicity control, cherry-picks, set 5 (AID 1053117)", "assay_type": "functional, cell-based"}},
  "note": "The source made the active and inactive calls.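 Wherever IC50 Mean is given: confirmatory dose-response retesting of NadD inhibitor hits first found in an ultra-high-throughput screen.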",
  "data": [
    {"smiles": "CCOC(=O)c1c(NC(=O)c2ccco2)n(C2CCCCC2)c2nc3ccccc3nc12", "values": [
      {"measurement": "IC50", "setting": "[1]", "value": "> 50 µM (not active)"},
      {"measurement": "AC50", "setting": "[2]", "value": "229 µM (active)"},
      {"measurement": "CC50", "setting": "Vero", "value": "> 40 µM (active)"},
      {"measurement": "EC50", "setting": "Protein RecA", "value": "2.62 µM (active)"},
      {"measurement": "IC50", "setting": "[3]", "value": "1.67 µM (active)"}
    ]},
    {"smiles": "Cc1cccc(-n2c(S)nnc2-c2ccoc2C)c1", "values": [
      {"measurement": "IC50", "setting": "[4]", "value": "> 122 µM (inactive)"}
    ]},
    {"smiles": "CCOC(=O)N1CCN(C(=O)c2cc3c(s2)-c2ccccc2OC3)CC1", "values": [
      {"measurement": "IC50", "setting": "Beta-galactosidase", "value": "> 80 µM (inactive)"}
    ]},
    {"smiles": "Cc1ccc(Cn2c(C3CCCN3c3nc(-c4cc(Cl)c(N)c(Cl)c4)cs3)nc3cc(Cl)c(Cl)cc32)cc1", "note": "(stereo unspecified)", "values": [
      {"measurement": "IC50", "setting": "[5]", "value": "11.1 µM (active)"},
      {"measurement": "IC50", "setting": "[6]", "value": "26.4 µM (active)"}
    ]},
    {"smiles": "CC(=O)O[C@H]1C[C@@H]2OC3C=C(C)CCC3(C)[C@@]1(C)[C@@]21CO1", "note": "(stereo partly specified)", "values": [
      {"measurement": "IC50", "setting": "[7]", "value": "49.8 µM (inactive)"}
    ]},
    {"smiles": "CN1C(=O)c2cc(NC(=O)c3ccc(C(F)(F)F)cc3)ccc2OC[C@@H]2O[C@H](CC(=O)NC3Cc4ccccc4C3)CC[C@H]21", "values": [
      {"measurement": "AC50", "setting": "[8]", "value": "15.5 µM (active)"},
      {"measurement": "AbsAC35", "setting": "[9]", "value": 229.94, "unit": "µM"},
      {"measurement": "AbsAC35", "setting": "[10]", "value": 100.28, "unit": "µM"},
      {"measurement": "AbsAC35", "setting": "[11]", "value": 52.78, "unit": "µM"}
    ]},
    {"smiles": "COc1ccccc1CNC(=O)C[C@@H]1C[C@H]2c3cc(NC(=O)c4ccc5c(c4)OCO5)ccc3O[C@H]2[C@H](CO)O1", "values": [
      {"measurement": "AbsAC35", "setting": "[9]", "value": 232.4, "unit": "µM"},
      {"measurement": "AbsAC35", "setting": "[10]", "value": 37.67, "unit": "µM"},
      {"measurement": "AbsAC35", "setting": "[11]", "value": 179.84, "unit": "µM"}
    ]},
    {"smiles": "COc1cc(C2c3cc4c(cc3C(O)C3COC(=O)C23)OCO4)cc(OC)c1OC", "note": "(stereo unspecified)", "values": [
      {"measurement": "IC50", "setting": "cells", "value": "> 67.5 µM (inactive)"},
      {"measurement": "IC50", "setting": "[12]", "value": "> 67.5 µM (inactive)"}
    ]},
    {"smiles": "CO[C@H]1CN(C)C(=O)c2cc(NC(=O)Nc3cc(Cl)cc(Cl)c3)ccc2OC[C@@H](C)NC[C@@H]1C", "values": [
      {"measurement": "AC50", "setting": "[13]", "value": "> 52 µM (inactive)"}
    ]},
    {"smiles": "CCCCNc1c(-c2ccc(-c3ccc(C(C)=O)cc3)c(OC)c2)nc2cc(C)ccn12", "values": [
      {"measurement": "IC50", "setting": "Beta-galactosidase", "value": "77.5 µM (inactive)"}
    ]}
  ]
}
